From patent US5972636A (priority 1997, dated 1999)
Like-named read-outs stand apart in the source and are kept apart here.

B1: cystatin B (protein, UniProt P04080 1-98, looked up)
Cystatin-B: MMCGAPSATQPATAETQHIADQVRSQLEEKENKKFPVFKAVSFKSQVVAGTNYFIKVHVGDEDFVHLRVFQSLPHENKPLTLSNYQTNKAKHDELTYF
B2: cystatin C: member of the cystatin superfamily (protein, UniProt P01034 27-146, looked up)
Cystatin-C: SSPGKPPRLVGGPMDASVEEEGVRRALDFAVGEYNKASNDMYHSRALQVVRARKQIVAGVNYFLDVELGRTTCTKTQPNLDNCPFHDQPHLKRKAFCSFQIYAVPWQGTMTLSKSTCQDA

Assays:
[1] = biological target: T1, proteasome from skeletal muscle (Oryctolagus cuniculus, UniProt G1T4Q9); assay type: biochemical, rabbit
T1 construct: from tissue; host or cells: rabbit skeletal (psoas) muscle, proteasome fraction after Mono Q and Superose 6

[2] = test system: 1500 kDa complex (proteasome-multipain); details: for Realtive Activity (%) Complex, Ub-lysozyme degradation / effect of nucleotides on Ub-125I-lysozyme hydrolysis by the complex, in words: Table VIII; for Realtive Activity (%) Complex, Ub-lysozyme degradation: 2 mM of the nucleotide or 10 mM PPi
[3] = test system: new protease (multipain) from skeletal muscle; details: for Relative activity (%) NEW […] Ub-lysozyme / Relative activity (%) NEW […] OH/O2 - treated hemoglobin / Relative activity (%) NEW […] lysozyme: Table IV, 37° C. 1 h; for Relative activity (%) NEW […] Ub-lysozyme: DFP 1 mM, Cystatin A 4 uM, Hemin 0.1 mM, NEM 1 mM, Leupeptin 0.1 mM, E64 0.1 mM, NaOleate 0.125 mM, SDS 0.01%, o-Phenanthroline 0.1 mM; for Relative activity (%) NEW […] OH/O2 - treated hemoglobin / Relative activity (%) NEW […] lysozyme: concentrations as in E1; for Relative activity (%), degradation of Ub-125I-lysozyme by the new activity / effect of nucleotides on Ub-125I-lysozyme hydrolysis by the purified enzyme, in words: Table III; for Relative activity (%), degradation of Ub-125I-lysozyme by the new activity: 2 mM of the nucleotides or 10 mM PPi, 37° C. 1 hour
[4] = test system: ATP-ubiquitin-dependent proteolytic system; test: ATP-ubiquitin-activated proteolysis in extracts (Fraction II) of psoas muscle; assay type: biochemical, rabbit
Description: Psoas muscles from fed and fasted rabbits were used to obtain sufficient material for assay of the ATP-dependent system in cell-free extracts. Fasted rabbits were deprived of food for sufficient time to cause a weight loss of about 20% (similar to that seen in rats deprived of food for 1 day). The animals were anesthesized, and their psoas muscles dissected and homogenized as described previously. Fagan, J. M., et al., J. Biol. Chem., 261: 5705-5713 (1986).
After centrifugation at 10,000×g and then at 100,000×g, the muscle extracts were fractionated on DE52 cellulose to remove ubiquitin and most cell proteins, as described previously. Han, H. Q. et al., Federation Proc, 2:A564 (1988) and Waxman, L., et al., J. Biol. Chem., 262:2451-2457 (1987). The fraction containing the ATP-ubiquitin-dependent proteolytic system (Herskho, A., J. Biol. Chem., 263:15237-15240 (1988); Rechsteiner, M., Ann. Rev. Cell Biol., 3:1-30 (1987) and Fagan, J. M., et al. Biochem J., 243:335-343 (1987)) was eluted with 0.5M NaCl ("Fraction II"), dialyzed against a buffer containing Tris (50 mM, pH7.8), dithiothreitol (1 mM), and 20% glycerol, and concentrated before assay of activity. Degradation of endogenous muscle proteins was assayed by measuring the production of free tyrosine, which was determined fluorometrically after precipitation of proteins with trichloroacetic acid. Tischler, M. et al., J. Biol, Chem., 257:1613-1621 (1982) and Fulks, R., et al., J. Biol. Chem., 250:290-298 (1975). In addition, the degradation of ^14 C-casein was assayed by measuring the production of acid-soluble radioactivity. Waxman, L., et al., J. Biol. Chem., 262:2451-2457 (1987) and Fagan, J. M., Biochem J., 243:335-343 (1987).

[5] = test system: proteasome-multipain complex formation; assay type: biochemical, rabbit; details: DFP 1 mM or cystatin 4 μM preincubated 10 min; AMP-PNP in place of ATP
[6] = Table VII, None = 100, 2 mM ATP, DFP 1 mM, Cystatin 4 μM, NEM 1 mM, Leupeptin 100 μM, E-64 100 μM, Sodium oleate 125 μM, SDS 0.01%, o-Phenanthroline 100 μM
[7] = Table VII, substrate Ub-125I-lysozyme, None = 100, 2 mM ATP, concentrations as in E5

| Molecule | Realtive Activity (%) Proteasome (sLLVT-MCA) [1] [%] | Relative activity (%) […]-MCA [1] [%] | Relative activity (%) NEW […] Ub-lysozyme ([3]; None = 100, 2 mM ATP) [%] | Relative activity (%) NEW […] OH/O2 - treated hemoglobin ([3]; None = 100, 2 mM ATP) [%] | Relative activity (%) NEW […] lysozyme ([3]; None = 100, 2 mM ATP) [%] | Realtive Activity (%) Complex, Ub-lysozyme degradation ([2]; None = 100) [%] | Relative activity (%), degradation of Ub-125I-lysozyme by the new activity ([3]; None = 100) [%] | also measured |
| --- | --- | --- | --- | --- | --- | --- | --- | --- |
| c1cnc2c(c1)ccc1cccnc12 [o-Phenanthroline] | 60 | 60 | 48 | 54 | 55 | – | – | inhibition of conjugate breakdown by the complex ([2]; Table VII): about 60%; Realtive Activity (%) Complex (Ub-125I-Lysozyme) [2, 6]: 57%; Realtive Activity (%) Multipain [3, 7]: 48%; effect on Ub-conjugate breakdown by the new protease (multipain), in words ([3]; text): showed some inhibition |
| O=c1ccn([C@@H]2O[C@H](COP(=O)(O)OP(=O)(O)OP(=O)(O)O)[C@@H](O)[C@H]2O)c(=O)[nH]1 [UTP] | – | – | – | – | – | 174 | 108 | – |
| CC(=O)N[C@@H](CC(C)C)C(=O)N[C@@H](CC(C)C)C(=O)N[C@H](C=O)CCCNC(=N)N [Leupeptin] | 83 | 83 | 69 | 73 | 72 | – | – | effect on the complex, in words ([2]; Table VII): did not show any significant effect on the complex; Realtive Activity (%) Complex (Ub-125I-Lysozyme) [2, 6]: 75%; Realtive Activity (%) Multipain [3, 7]: 69%; inhibition of Ub-conjugate breakdown by the new protease ([3]; cystatin B at concentrations similar to cystatin A): 30% |
| CC(C)C[C@H](NC(=O)[C@H]1O[C@@H]1C(=O)O)C(=O)NCCCCNC(=N)N [E64] | 100 | 100 | 100 | 100 | 100 | – | – | effect on the complex, in words ([2]; Table VII): did not show any significant effect on the complex; Realtive Activity (%) Complex (Ub-125I-Lysozyme) [2, 6]: 96%; Realtive Activity (%) Multipain [3, 7]: 100%; effect on Ub-conjugate breakdown by the new protease (multipain), in words ([3]; text): not at all; effect on Ub-conjugate breakdown by the new protease (multipain), in words ([3]; text, listed as E-64): unable to inhibit multipain |
| Nc1ncnc2c1ncn2[C@@H]1O[C@H](COP(=O)(O)OP(=O)(O)OP(O)(O)=S)[C@@H](O)[C@H]1O [ATP-γ-S, adenosine 5'-o-thiotriphosphate] | – | – | – | – | – | 135 | 103 | effect of nucleotides on Ub-125I-lysozyme hydrolysis by the complex, in words [2]: No stimulation; effect of nucleotides on Ub-125I-lysozyme hydrolysis by the purified enzyme, in words [3]: No stimulation |
| CBZ-ala-arg-arg-CK | – | – | – | – | – | – | – | concentration that inactivates the 1500 kDa complex [2]: 50 µM; concentration that inactivates multipain [3]: 50 µM |
| Nc1ncnc2c1ncn2[C@@H]1O[C@H](COP(=O)(O)OP(=O)(O)O)[C@@H](O)[C@H]1O [ADP] | – | – | – | – | – | 146 | 113 | effect of nucleotides on Ub-125I-lysozyme hydrolysis by the complex, in words [2]: no significant effect; effect of nucleotides on Ub-125I-lysozyme hydrolysis by the purified enzyme, in words [3]: no significant effect |
| Hemin | – | 0 | 0 | 7 | 0 | – | – | effect on Ub-conjugate breakdown by the new protease (multipain), in words ([3]; text): blocked conjugate-degrading activity; effect on Ub-conjugate breakdown by the new protease (multipain), in words ([3]; text, listed as hemin): is sensitive to |
| Nc1ccn([C@@H]2O[C@H](COP(=O)(O)OP(=O)(O)OP(=O)(O)O)[C@@H](O)[C@H]2O)c(=O)n1 [CTP] | – | – | – | – | – | 410 | 373 | stimulation of Ub-lysozyme hydrolysis by the new protease ([3]; ATP 2 mM where stated, 60 min): ~4 fold |
| Nc1ncnc2c1ncn2[C@@H]1O[C@H](COP(=O)(O)OP(=O)(O)OP(=O)(O)O)[C@@H](O)[C@H]1O [ATP] | – | – | – | – | – | 458 | 743 | 14C-Casein Hydrolysis [4]: 2.3 ± 0.2 ug casein hydrolyzed/1 hr; Hydrolysis of Endogenous Proteins ([4]; Fasted rabbits, No addition 2.0 ± 0.1, ATP 5 mM, ubiquitin 15 μM): 10.8 ± 2.1 nmol try released/2 hr; Hydrolysis of Endogenous Proteins ([4]; Fed rabbits, No addition 0.6 ± 0.1, ATP 5 mM, ubiquitin 15 μM): 5.7 ± 0.9 nmol try released/2 hr; 14C-Casein Hydrolysis ([4]; Fed rabbits, No addition 1.1 ± 0.2, ATP 5 mM, ubiquitin 15 μM): 1.5 ± 0.2 ug casein hydrolyzed/1 hr; ATP concentration of maximal stimulation of conjugate degradation, 1500 kDa complex [2]: about 0.7 mM; stimulation of degradation of Ub-125I-lysozyme, 125I-lysozyme, sLLVT-MCA or casein by the complex ([2]; 1500 kda proteasome-multipain complex): 3-5 fold; Km ([2]; read-out: Km for ATP, 1500 kDa complex, Ub-conjugate degradation): ≤ 300 µM; effect on formation of the proteasome-multipain complex, in words [5]: allowed formation of a 1300 kDa complex; stimulation of Ub-lysozyme hydrolysis by the new protease ([3]; ATP 2 mM where stated, 60 min): 5 fold; stimulation of lysozyme degradation by the new protease ([3]; ATP 2 mM where stated, 60 min): 3 fold; Km ([3]; read-out: Km for ATP, multipain, Ub-conjugate degradation): ≤ 300 µM |
| Nc1nc2c(ncn2[C@@H]2O[C@H](COP(=O)(O)OP(=O)(O)OP(=O)(O)O)[C@@H](O)[C@H]2O)c(=O)[nH]1 [GTP] | – | – | – | – | – | 326 | 435 | stimulation of Ub-lysozyme hydrolysis by the new protease ([3]; ATP 2 mM where stated, 60 min): ~4 fold |
| Nc1ncnc2c1ncn2[C@@H]1O[C@H](COP(=O)(O)O)[C@@H](O)[C@H]1O [AMP] | – | – | – | – | – | 99 | 130 | effect of nucleotides on Ub-125I-lysozyme hydrolysis by the complex, in words [2]: no significant effect; effect of nucleotides on Ub-125I-lysozyme hydrolysis by the purified enzyme, in words [3]: no significant effect |
| CCN1C(=O)C=CC1=O [NEM, N-ethylmaleimide] | 37 | 37 | 29 | 30 | 27 | – | – | inhibition of conjugate breakdown by the complex ([2]; Table VII): 65%; Realtive Activity (%) Complex (Ub-125I-Lysozyme) [2, 6]: 33%; Realtive Activity (%) Multipain [3, 7]: 29%; effect on Ub-conjugate breakdown by the new protease (multipain), in words ([3]; text): strongly inhibited this activity |
| CCCCCCCCCCCCOS(=O)(=O)[O-].[Na+] [SDS, sodium dodecyl sulfate] | 125 | 125 | – | 42 | 46 | – | – | Realtive Activity (%) Complex (Ub-125I-Lysozyme) [2]: 46%; Realtive Activity (%) Multipain [3]: 44%; Relative activity (%) NEW PROTEASE Ub-lysozyme [3]: 44% |
| CCCCCCCC/C=C\CCCCCCCC(=O)[O-].[Na+] [NaOleate, Sodium oleate] | 179 | 179 | 29 | 40 | 34 | – | – | Realtive Activity (%) Complex (Ub-125I-Lysozyme) [2, 6]: 38%; Realtive Activity (%) Multipain [3, 7]: 29% |
| B1 | – | – | – | – | – | – | – | inhibition of Ub-conjugate breakdown by the new protease [3]: 55% |
| B2 | – | – | – | – | – | – | – | effect on Ub-conjugate breakdown by the new protease (multipain), in words [3]: no significant effect |
